Data from publication PMC4841789, “Synthesis and pharmacological evaluation of mono-arylimidamides as antileishmanial agents” (Bioorganic & Medicinal Chemistry Letters, 2016).
Read-outs that look alike come from different tables or passages of the source.

Key:
[1] = tested on: Intracellular L. amazonensis; experiment: Efficacy against intracellular L. amazonensis amastigotes; assay type: cell-based; settings: Leishmania amazonensis
Source text: (§1) Methods employed for the evaluation of the efficacy of mono-AIA target compounds against intracellular L. amazonensis[14] and intracellular L. donovani[15] and for toxicity to murine J774 macrophages[16] have been described previously. […] For ease in illustrating the antileishmanial SAR of this series of compounds, the central phenyl ring, the linker, and the terminal phenyl ring are referred to as rings A, B, and C, respectively (Fig. 1).

[2] = tested on: Intracellular L. donovani; experiment: Efficacy against intracellular L. donovani amastigotes; assay type: cell-based; settings: Leishmania donovani; means ± standard errors of at least three independent experiments
Source text: as §1

[3] = tested on: J774 macrophages; experiment: Toxicity to murine J774 macrophages (host cell counterscreen); assay type: cell-based; settings: for IC50: Mus musculus; for selectivity index for intracellular Leishmania compared to J774 murine macrophages: IC50 vs J774 macrophages/IC50 vs Leishmania
Source text: For ease in illustrating the antileishmanial SAR of this series of compounds, the central phenyl ring, the linker, and the terminal phenyl ring are referred to as rings A, B, and C, respectively (Fig. 1).

[4] = tested on: healthy BALB/c mice; experiment: In vivo toxicity assessment in healthy BALB/c mice; settings: i.p. 30 mg/kg/day for 5 days, dissolved in water
Procedure: (§2) Compounds 1b, 1d, and 1k were dissolved in water and administered to healthy BALB/c mice for assessment of their in vivo toxicity. […] Animals were infected with L. donovani LV82 promastigotes and then treated with different compounds one week post infection for five consecutive days. These mice were euthanized two weeks post infection and liver smear slides were prepared for the microscopic determination of parasitemia.

[5] = tested on: L. donovani LV82; experiment: Murine model of visceral leishmaniasis (liver parasitemia); assay type: in vivo; settings: L. donovani-infected mice; for suppression (inhibition) of liver parasitemia: i.p. 30 mg/kg/day for 5 days, vs untreated control
Procedure: as §2
Compounds were administered i.p. (A and B) or p.o. (C) once daily for 5 days to infected mice. Results are presented as the percentage inhibition of liver parasitemia. Bars and error bars show the mean and standard deviation, respectively (n = 4) ^*p < 0.01, compared to untreated control, ^#p < 0.05, compared to untreated control.

[6] = Plasma and tissue concentrations after a single oral dose; assay type: in vivo; settings: mouse, mice; for concentration at 24 h: 24 h after single oral dose 100 μmol/kg (40 mg/kg); for concentration at 1 h: 1 h after single oral dose 100 μmol/kg (40 mg/kg)
Procedure: To confirm the exposure and accumulation of 1b in target organs after oral administration, plasma and tissue concentrations of this compound were determined at 1, 2 and 24 h after a single oral dose at 100 μmol/kg (or 40 mg/kg) in mice. Compound 1b accumulated in the target organs such as liver and spleen at higher concentrations (C1h = 12.6 and 4.7 μM, respectively) than in the plasma (C1h = 1.9 μM) (Fig. 3). At 24 h post dose, 1b concentrations decreased substantially to 0.14 μM in the plasma and 0.6–0.7 μM in the liver and spleen.
Figure 3 Concentration of 1b in liver ( [drawing 15] ), spleen ( [drawing 16] ), kidney ( [drawing 17] ), and plasma ( [drawing 18] ) after oral administration at a dose of 100 μmol/kg (or 40 mg/kg) to mice. Bars and error bars represent means and standard errors of triplicate determinations, respectively.

[7] = tested on: intracellular L. amazonensis amastigotes; experiment: Combination study of 1b and posaconazole against intracellular L. amazonensis amastigotes; assay type: cell-based; settings: Leishmania amazonensis; combination experiment, absence of posaconazole; read-out: IC50 of 1b alone
Source text: Our efforts to explore the mechanism of antileishmanial action of the bis-AIAs led to the observation that DB766 is synergistic with posaconazole against Leishmania donovani in vitro[17]; other investigators reported in vitro antileishmanial synergy between posaconazole and the squalene synthase inhibitor E5700.[18] A combination study with 1b and posaconazole was thus performed against intracellular L. amazonensis amastigotes. […] Instead, the method described by Peters et al.[23] was employed to determine whether posaconazole enhances the potency of 1b. […] Although both assays involved incubating infected murine peritoneal macrophages with posaconazole for 72 h, de Macedo-Silva exposed peritoneal macrophages to L. amazonensis for a shorter time compared to our studies prior to removing extracellular parasites (2 h vs overnight). […] Thus, a likely explanation for the discrepancy between IC50 values for posaconazole against intracellular L. amazonensis in the two studies is the differences in assay conditions employed.
Figure 4 In vitro interactions between 1b and posaconazole against intracellular L. amazonensis. Results are presented as the IC50 of 1b alone and in different combinations. Bars and error bars show the mean and standard deviation of three independent experiments.

[8] = means ± standard errors of at least three independent experiments, values marked b: means ± range of two experiments, read-out: IC50 Intracellular L. amazonensis
[9] = murine J774 macrophages, means ± standard errors of at least three independent experiments, read-out: IC50 J774 macrophages

| Structure (SMILES) | IC50 [1, 8] | IC50 [2] | IC50 [3, 9] | other results |
| --- | --- | --- | --- | --- |
| CC(C)Oc1cc(NC(=N)c2ccccn2)ccc1-c1ccco1 [Compound 1a] | 2.1 ± 0.2 µM | 2.4 ± 0.3 µM | 22 µM | – |
| CC(C)Oc1cc(NC(=N)c2ccccn2)ccc1-c1ccc(-c2ccccc2)o1.CS(=O)(=O)O [Compound 1b, N-(3-isopropoxy-4-(5-phenylfuran-2-yl)phenyl)picolinimidamide methanesulfonate] | 0.13 ± 0.03 µM | 0.31 ± 0.01 µM | 13 µM | selectivity index for intracellular Leishmania compared to J774 murine macrophages [3]: ≥ 25; in vivo tolerability [4]: well tolerated; suppression (inhibition) of liver parasitemia [5]: 37%; inhibition of liver parasitemia ([5]; p.o. 50 mg/kg once daily for 5 days): 37%; inhibition of liver parasitemia ([5]; p.o. 100 mg/kg/day for five days, vs control): 46%; concentration at 24 h ([6]; liver and spleen, read-out: concentration in the liver and spleen at 24 h post dose): 600 to 700 nM; concentration at 1 h ([6]; liver, read-out: liver concentration C1h): 12600 nM; concentration at 1 h ([6]; plasma, read-out: plasma concentration C1h): 1900 nM; concentration at 24 h ([6]; plasma, read-out: plasma concentration at 24 h post dose): 140 nM; concentration at 1 h ([6]; spleen, read-out: spleen concentration C1h): 4700 nM; IC50 [7]: 0.26 ± 0.05 µM |
| CC(C)Oc1cc(NC(=N)c2ccccn2)ccc1-c1ccc(-c2cncnc2)o1 [Compound 1c] | 1.1 ± 0.3 µM | 2.1 ± 0.4 µM | > 20 µM | – |
| CC(C)Oc1cc(NC(=N)c2ccccn2)ccc1-c1ccc(-c2ccco2)o1.Cl [Compound 1d] | 0.25 ± 0.01 µM | 0.34 ± 0.05 µM | 8.5 ± 0.8 µM | selectivity index for intracellular Leishmania compared to J774 murine macrophages [3]: ≥ 25; in vivo tolerability [4]: well tolerated; suppression (inhibition) of liver parasitemia [5]: 13% |
| CC(C)Oc1cc(NC(=N)c2ccccn2)ccc1-c1ccc(-c2cccnc2)o1 [Compound 1e] | 0.9 ± 0.23 µM | 1.2 ± 0.1 µM | > 50 µM | – |
| CC(C)Oc1cc(NC(=N)c2ccccn2)ccc1-c1ccc(-c2ccncc2)o1 [Compound 1f] | 2.7 ± 0.2 µM | 2.6 ± 0.1 µM | 22 µM | – |
| COc1ccc(-c2ccc(-c3ccc(NC(=N)c4ccccn4)cc3OC(C)C)o2)cc1 [Compound 1g] | 0.82 ± 0.31 µM | 0.9 ± 0.15 µM | 6.7 ± 0.9 µM | – |
| CC(C)Oc1cc(NC(=N)c2ccccn2)ccc1-c1ccc(-c2ccc(F)cc2)o1 [Compound 1h] | 0.92 ± 0.19 µM | 1.1 ± 0.1 µM | 8 ± 0.1 µM | – |
| COc1ccccc1-c1ccc(-c2ccc(NC(=N)c3ccccn3)cc2OC(C)C)o1 [Compound 1i] | 1.4 ± 0.2 µM | 1.3 ± 0.1 µM | 5.3 ± 1 µM | – |
| CC(C)Oc1cc(-c2ccc(-c3ccccc3)o2)ccc1NC(=N)c1ccccn1 [Compound 1j] | 1.6 ± 0.3 µM | 1.4 ± 0.3 µM | 13 µM | – |
| CS(=O)(=O)O.N=C(Nc1ccc(-c2ccc(-c3ccccc3)o2)c(OC2CCCC2)c1)c1ccccn1 [Compound 1k] | 0.14 ± 0.01 µM | 0.17 ± 0.04 µM | 13 µM | selectivity index for intracellular Leishmania compared to J774 murine macrophages [3]: ≥ 25; in vivo tolerability [4]: well tolerated; suppression (inhibition) of liver parasitemia [5]: 20% |
| CCOc1cc(NC(=N)c2ccccn2)ccc1-c1ccc(-c2ccccc2)o1 [Compound 1l] | 0.98 ± 0.07 µM | 0.85 ± 0.17 µM | 6.6 ± 0.6 µM | – |
| COc1cc(NC(=N)c2ccccn2)ccc1-c1ccc(-c2ccccc2)o1 [Compound 1m] | 3.7 ± 1.3 µM | 1.4 ± 0.3 µM | 9 ± 2 µM | – |
| N=C(Nc1ccc(-c2ccc(-c3ccccc3)o2)c(C(F)(F)F)c1)c1ccccn1 [Compound 1n] | > 10 µM | 6.1 ± 1.4 µM | > 20 µM | – |
| CC(C)Oc1cc(NC(=N)c2ccccn2)ccc1-c1ccc(-c2ccccc2)s1 [Compound 1o] | 2.3 ± 0.3 µM | 2.2 ± 0.5 µM | 6.9 ± 0.4 µM | – |
| CC(C)Oc1cc(NC(=N)c2ncccn2)ccc1-c1ccc(-c2ccccc2)o1 [Compound 1p] | 0.65 ± 0.16 µM | 0.44 ± 0.06 µM | 12 µM | – |
| COc1ccc(-n2cc(-c3ccc(NC(=N)c4ccccn4)cc3OC(C)C)nn2)cc1 [Compound 2] | 2.9 ± 0.1 µM | 1.6 ± 0.2 µM | 16 µM | – |
| CC(C)Oc1cc(NC(=N)c2ccccn2)ccc1-c1cnc(-c2ccccc2)o1 [Compound 3] | 0.59 ± 0.06 µM | 1 µM | 24 µM | – |
| C[C@@H]1[C@H](O)[C@@H](C)/C=C/C=C/C=C/C=C/C=C/C=C/C=C/[C@H](O[C@@H]2O[C@H](C)[C@@H](O)[C@H](N)[C@@H]2O)C[C@@H]2O[C@](O)(C[C@@H](O)C[C@@H](O)[C@H](O)CC[C@@H](O)C[C@@H](O)CC(=O)O[C@H]1C)C[C@H](O)[C@H]2C(=O)O [amphotericin B, reference compound] | 0.12 ± 0.01 µM | 0.04 ± 0.003 µM | – | – |
| CCCCCCCCCCCCCCCCOP(=O)([O-])OCC[N+](C)(C)C [miltefosine, reference compound] | – | – | – | inhibition of liver parasitemia ([5]; i.p. 10 mg/kg/day for five days, 10 mg/kg/day): > 90%; inhibition of liver parasitemia ([5]; i.p. 10 mg/kg/day for five days, listed as Milt, 10 mg/kg/day): 99%; inhibition of liver parasitemia ([5]; i.p. 10 mg/kg/day for five days, listed as Miltefosine, 10 mg/kg/day): 98%; inhibition of liver parasitemia ([5]; p.o. 10 mg/kg/day for five days, 10 mg/kg/day): > 90%; inhibition of liver parasitemia ([5]; p.o. 10 mg/kg/day for five days, listed as Milt, 10 mg/kg/day): 96% |
| COc1cc([C@@H]2c3cc4c(cc3[C@H](O)[C@H]3COC(=O)[C@H]23)OCO4)cc(OC)c1OC [podophyllotoxin, reference compound] | – | – | – | IC50 ([3]; J774, read-out: IC50 J774 macrophages): 0.024 ± 0.005 µM |
| CC[C@@H]([C@H](C)O)n1ncn(-c2ccc(N3CCN(c4ccc(OC[C@@H]5CO[C@@](Cn6cncn6)(c6ccc(F)cc6F)C5)cc4)CC3)cc2)c1=O [posaconazole, reference compound] | – | – | – | IC50 ([1]; Peritoneal macrophage, infected murine peritoneal macrophages, 72 h, low solubility at higher concentrations, read-out: IC50 against intracellular L. amazonensis): > 10 µM |
